Experiments:
[1] = test system: Human red blood corpuscles; assay: Measurement of haemolysis induced by AAPH; format: cell-based; settings: Erythrocyte, 0.5 h, 10^-5 M, 30 minutes at 37° C.
Procedure: Measurement of haemolysis induced by AAPH
Human red blood corpuscles are placed for a period of 30 minutes at 37° C. in the presence of AAPH, which generates free radicals at a constant rate, and in the presence or absence of the compounds being studied. The optical density of the supernatant is measured at 403 nm compared with the control without AAPH. The percentage inhibition of haemolysis is calculated by comparison with the 100% haemolysis obtained for the AAPH control.

[2] = Hypolipaemic activity in hypercholesterolaemic mice; format: in vivo; settings: 100 mg/kg p.o.; serum
Procedure: Groups each comprising 6 mice are rendered hypercholesterolaemic by a diet that is high in cholesterol and in cholic acid for 7 days. The compounds of the invention are administered p.o. (100 mg/kg) on the 6th and 7th day (half the dose being administered on day 6 and the other half on day 7). The animals are then left without food and drink for one night. The reduction in the concentration of cholesterol in the serum compared with hypercholesterolaemic control mice is then evaluated, as is also the reduction in concentration of lipoproteins (corresponding to the LDL-VLDL fractions), after precipitation by the addition of heparin to the serum, in the same hypercholesterolaemic mice compared with the control animals.

5-HT2 receptors = assay: Serotoninergic activity (competition with [3H]ketanserine); format: binding, rat (male Wistar, cerebral cortex membranes); settings: 10 μM (n=3); [3H]ketanserine 0.5 nM, 40 min/25° C.
Procedure: The experiments are carried out on membranes prepared from the cerebral cortex of male Wistar rats (CERJ, le Genest St Isle). The binding measurements are carded out using ketanserine as reference compound. The conditions of the experiment are summarised below:
After incubation, the membranes are quickly filtered. The filtrates are then transferred to flasks containing scintillation liquid and the bound radioactivity is determined by a liquid scintillation counter (LS6000, Beckman). The affinity of the compounds of the invention for the 5-HT2 receptors is evaluated, at the concentration 10 μM (n=3), using competition experiments.

thoracic aorta of rats = assay: Anticalcic activity (contraction induced by potassium chloride); design: species or system male Wistar rats; settings: Rattus norvegicus; 60 mM KCl; 2 preparations, 8 concentrations; read-out: IC50, inhibition of thoracic aorta contraction induced by potassium chloride
Procedure: The anticalcic activity was studied in the thoracic aorta of male Wistar rats. Once they have been introduced into experimental vessels containing a physiological solution, the vascular rings are subjected to an initial tension of 2 g. The preparations are then placed in the presence of a hyperpotassic solution (60 mM of potassium chloride) in order to obtain a sustained contractile response. Increasing concentrations of the product being tested are then added for the period necessary to obtain a stable effect.
Each compound of the invention is thus tested in 2 preparations at 8 concentrations (10^-8 M to 3×10^-5 M) to obtain a concentration-effect curve and determine the IC50.

[3] = Antihypoxic activity in vivo (time until first gasps); design: species or system mice (Swiss CD 1); settings: 30 minutes before hypoxia, control 36 ± 4
Procedure: Male mice (Swiss CD 1 ) weighing from 25 to 30 g are, before any experiment, housed for one week under conditions customary for animals (20°-22° C., 55% humidity, light/darkness cycle 12/12, commercial feed and water as desired). The mice are placed in a box (7×5×5 cm) in which an atmosphere poor in oxygen is created by passing through a stream of air (96% N2, 4% O2, 12 l/min). The time taken until the first signs of suffocation (or "gasps") occur is measured. The mice receive a dose of the compounds to be tested by the intraperitoneal route 30 minutes before the hypoxia is induced. Vincamine is used as the reference drug.

native human LDLs = assay: Protective activity against LDL oxidation (electrophoretic method, FPLC, Cu2+ induced); format: biochemical; settings: 10 μM; with Cu++; 24 hours
Procedure: Study of the protective activity against LDL oxidation (electrophoretic method)
The capacity of the compounds of the invention to decrease the proportions of oxidised LDLs was measured by incubating a preparation comprising native human LDLs, a Cu^2+ free radical generator, and the compounds to be tested for 24 hours. The oxidation products are determined by FPLC (Fast Protein Liquid Chromatography) in accordance with the method described by B. Vedie et al., Journal of Lipid Research, 32, 1359-1369, (1991). By that method it was possible to identify 5 peaks corresponding to different degrees of LDL oxidation. Peaks A and B correspond to the native forms of LDL and peaks C, D and E correspond to the different states of oxidation of the LDLs (peak E corresponding to the most oxidised form). The results are expressed as a percentage of the LDLs corresponding to those different states of oxidation.

lipoxygenase = assay: Measurement of lipoxygenase activities (B4 leukotriene release, calcium ionophore A 23 187); format: cell-based; settings: 10 μM; rabbit granulocytes; average of 3
Procedure: Measurement of lipoxygenase activities The measurements are carried out on rabbit granulocytes. The isolated granulocytes are stimulated in vitro by the calcium ionophore A 23 187. The B4 leukotrienes released in the extracellular medium are measured by Radio Immuno Assay (RIA). The results (average of 3 independent measurements) are expressed as a percentage inhibition compared with the control.

[4] = test system: platelet aggregation (rabbit plasma rich in platelets); assay: Measurement of antiaggregation activity (sodium arachidonate induced); format: cell-based; settings: Oryctolagus cuniculus, sodium arachidonate (50 μ/ml), read-out: Minimum active concentration, inhibition of maximum non-reversible platelet aggregation
Procedure: Measurement of antiaggregation activity
In that study, the compounds of the invention (100 μ/ml) were tested with the aim of quantifying their ability to inhibit the maximum non-reversible platelet aggregation (rabbit plasma rich in platelets) induced by sodium arachidonate (50 μ/ml). Thus the minimum active concentration for the compound of Example 1 is 20 μM.

COc1ccc(CN2CCN(C(=O)C3COc4ccc(O)cc4O3)CC2)c(OC)c1OC (centres unmarked) [Example 17, 7-HYDROXY-2-[4-(2,3,4-TRIMETHOXYBENZYL)PIPERAZIN-1-YLCARBONYL]-2,3-DIHYDRO- 1,4-BENZODIOXIN]
inhibition at 10 µM [1]: 100%

Oc1ccc2c(c1)OC=C(CN1CCN(C(c3ccc(F)cc3)c3ccc(F)cc3)CC1)O2 [Example 58, 6-HYDROXY-2-{4-[BIS-(4-FLUOROPHENYL)METHYL]PIPERAZIN-1- YLMETHYL}-1,4-BENZODIOXIN]
Reduction in the LDL-VLDL fraction [2]: 35% | Reduction in the total cholesterol [2]: 33% | Inhibiting activity, 5-HT2 receptor binding (5-HT2 receptors): 79% | IC50 (thoracic aorta of rats): 600 nM

O=C(Nc1ccccc1)C1=COc2ccc(O)cc2O1 [Example 13, 7-HYDROXY-2-ANILINOCARBONYL-1,4-BENZODIOXIN]
inhibition at 10 µM [1]: 100%

O=C(Nc1ccccc1)C1COc2ccc(O)cc2O1 (centres unmarked) [Example 12, 7-HYDROXY-2-ANILINOCARBONYL-2,3-DIHYDRO-1,4-BENZOP DIOXIN]
inhibition at 10 µM [1]: 100%

O=C(C1=COc2ccc(O)cc2O1)N1CCN(C(c2ccc(F)cc2)c2ccc(F)cc2)CC1 [Example 2, 7-HYDROXY-2-{4-[BIS(4-FLUOROPHENYL)METHYL]PIPERAZIN-1-YLCARBONYL}-1,4-BENZODIOXIN]
inhibition at 10 µM [1]: 100%

O=C(C1COc2cc(O)ccc2O1)N1CCN(C(c2ccc(F)cc2)c2ccc(F)cc2)CC1 (centres unmarked) [Example 3, 6-HYDROXY-2-{4-[BIS(4-FLUOROPHENYL)METHYL]PIPERAZIN -1-YLCARBONYL}-2,3-DIHYDRO-1,4-BENZODIOXIN]
inhibition at 10 µM [1]: 88%

CC[C@]12CCCN3CCc4c(n(c5ccccc45)[C@@](O)(C(=O)OC)C1)[C@@H]32 [Vincamine, reference compound]
Time until the first gasps occur ([3]; 20 mg/kg i.p.): 147 ± 14 s | Time until the first gasps occur ([3]; 2,5 mg/kg i.p.): inactive

O=C(Nc1ccccc1)C1COc2cc(O)ccc2O1 (centres unmarked) [Example 11, 6-HYDROXY-2-ANILINOCARBONYL-2,3-DIHYDRO-1,4-BENZODIOXIN]
inhibition at 10 µM [1]: 100%

CC(C)(Sc1cc(C(C)(C)C)c(O)c(C(C)(C)C)c1)Sc1cc(C(C)(C)C)c(O)c(C(C)(C)C)c1 [probucol, reference compound]
LDL oxidised form D separated by FPLC, percentage of LDLs (native human LDLs): 80% | LDL oxidised form E (most oxidised) separated by FPLC, percentage of LDLs (native human LDLs): 20%

O=C(C1=COc2cc(O)ccc2O1)N1CCN(C(c2ccc(F)cc2)c2ccc(F)cc2)CC1 [Example 1, 6-HYDROXY-2-{4-[BIS(4-FLUOROPHENYL)METHYL]PIPERAZIN-1-YLCARBONYL}-1,4-BENZODIOXIN]
Inhibiting activity (B4 leukotriene release) (lipoxygenase): 62% | minimal effective concentration [4]: 20 µM | inhibition at 10 µM [1]: 62% | IC50 (thoracic aorta of rats): 500 nM | Time until the first gasps occur ([3]; 2,5 mg/kg i.p.): 108 s | LDL form B separated by FPLC (native form), percentage of LDLs (native human LDLs): 95% | LDL oxidised form C separated by FPLC, percentage of LDLs (native human LDLs): 5%

O=C(Nc1ccccc1)C1=COc2cc(O)ccc2O1 [Example 10, 6-HYDROXY-2-ANILINOCARBONYL-1,4-BENZODIOXIN]
inhibition at 10 µM [1]: 100% | Time until the first gasps occur ([3]; 2,5 mg/kg i.p.): 97 s

Reference: patent publication US5420132A, “Substituted benzodioxins” (Adir et Compagnie, priority 1993, dated 1995)
